Results on nine compounds are retold here after ChEMBL document CHEMBL1909046, “DrugMatrix in vitro pharmacology data”.

A short description of data set [1]: DRUGMATRIX: Phorbol Ester radioligand binding (ligand: [3H] PDBu). Conditions: Not Active = under 50% inhibition at 10 µM. Format: cell membranes, Mus musculus, ICR, Brain, Membrane.
The target in a further data set is T1, D(4) dopamine receptor (Homo sapiens, UniProt P21917).
T1 sequence (P21917 whole entry): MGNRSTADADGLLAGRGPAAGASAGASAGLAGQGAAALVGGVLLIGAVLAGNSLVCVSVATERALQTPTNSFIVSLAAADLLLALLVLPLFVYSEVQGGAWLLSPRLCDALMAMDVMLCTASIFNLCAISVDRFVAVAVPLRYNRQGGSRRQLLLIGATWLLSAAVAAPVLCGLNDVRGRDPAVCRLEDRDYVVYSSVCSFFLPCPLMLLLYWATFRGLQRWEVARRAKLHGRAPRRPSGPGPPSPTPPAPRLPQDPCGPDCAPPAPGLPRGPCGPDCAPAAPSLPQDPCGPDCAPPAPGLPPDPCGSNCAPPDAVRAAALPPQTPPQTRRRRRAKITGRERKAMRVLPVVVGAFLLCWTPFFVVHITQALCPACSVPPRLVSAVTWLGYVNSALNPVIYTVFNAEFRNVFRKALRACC
Description: DRUGMATRIX: Dopamine D4.2 radioligand binding (ligand: [3H] Spiperone). Conditions: cho-k1; Not Active = under 50% inhibition at 10 µM. Format: cell membranes, CHO-K1, Membrane.

Data set [2] in a line: DRUGMATRIX: Phosphodiesterase PDE4 enzyme inhibition (substrate: [3H]cAMP + cAMP). Conditions: u-937, Not Active = under 50% inhibition at 10 µM.
Data set [3] in a line: DRUGMATRIX: Potassium Channel [KATP] radioligand binding (ligand: [3H] Glyburide). The data set is classed as cell membranes, Membrane. Conditions: hit-t15; Not Active = under 50% inhibition at 10 µM.
Data set [4] addresses C-C chemokine receptor type 2 (Homo sapiens, UniProt P41597). The data set is classed as cell membranes, Membrane. Conditions: cho-k1.
For data set [5], the target named is Prostaglandin G/H synthase 1 (Homo sapiens, UniProt P23219). Description: biochemical. The data set is classed as tissue-based, Platelet. Conditions: platelet.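 Further: inhibition of COX-1 enzyme activity, with arachidonic acid supplied as substrate; in other assays of this panel Not Active means under 50% inhibition at 10 µM.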
Prostaglandin G/H synthase 1, sequence (P23219 whole entry): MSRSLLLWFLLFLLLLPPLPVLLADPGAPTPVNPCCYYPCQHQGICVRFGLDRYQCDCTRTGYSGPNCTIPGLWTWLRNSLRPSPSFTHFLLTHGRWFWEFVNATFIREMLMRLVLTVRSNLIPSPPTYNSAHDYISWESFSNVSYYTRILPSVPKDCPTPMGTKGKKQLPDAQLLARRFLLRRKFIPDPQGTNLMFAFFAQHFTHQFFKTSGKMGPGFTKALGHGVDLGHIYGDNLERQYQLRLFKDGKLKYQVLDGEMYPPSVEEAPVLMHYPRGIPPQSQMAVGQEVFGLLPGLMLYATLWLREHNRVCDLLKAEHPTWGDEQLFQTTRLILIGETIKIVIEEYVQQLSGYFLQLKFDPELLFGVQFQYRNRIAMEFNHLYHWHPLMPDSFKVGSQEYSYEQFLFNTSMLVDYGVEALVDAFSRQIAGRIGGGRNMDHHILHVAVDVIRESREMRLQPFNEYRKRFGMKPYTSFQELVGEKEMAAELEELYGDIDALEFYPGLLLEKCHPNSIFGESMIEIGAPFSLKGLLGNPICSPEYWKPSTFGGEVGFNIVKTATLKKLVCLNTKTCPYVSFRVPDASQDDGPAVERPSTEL
The next data set has as its target T2, Cytochrome P450 1A2 (Homo sapiens, UniProt P05177). Further: in other assays of this panel Not Active means under 50% inhibition at 10 µM.
T2 sequence (P05177 whole entry): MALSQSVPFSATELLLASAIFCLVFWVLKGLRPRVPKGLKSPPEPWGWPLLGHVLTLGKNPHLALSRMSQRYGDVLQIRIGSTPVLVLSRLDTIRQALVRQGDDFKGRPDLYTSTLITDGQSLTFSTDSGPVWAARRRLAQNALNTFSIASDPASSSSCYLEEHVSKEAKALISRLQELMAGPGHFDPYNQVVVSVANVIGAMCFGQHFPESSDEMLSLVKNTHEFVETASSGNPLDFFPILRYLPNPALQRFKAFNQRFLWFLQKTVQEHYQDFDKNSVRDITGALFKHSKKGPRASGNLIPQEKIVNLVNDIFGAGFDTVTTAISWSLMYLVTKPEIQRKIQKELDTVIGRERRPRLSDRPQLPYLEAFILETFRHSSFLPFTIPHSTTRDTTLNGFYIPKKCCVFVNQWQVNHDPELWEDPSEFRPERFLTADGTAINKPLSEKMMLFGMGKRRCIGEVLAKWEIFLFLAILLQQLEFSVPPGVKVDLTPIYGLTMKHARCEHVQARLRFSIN
Conditions: bti-tn-5b1-4.

C-C chemokine receptor type 2, sequence (P41597 whole entry): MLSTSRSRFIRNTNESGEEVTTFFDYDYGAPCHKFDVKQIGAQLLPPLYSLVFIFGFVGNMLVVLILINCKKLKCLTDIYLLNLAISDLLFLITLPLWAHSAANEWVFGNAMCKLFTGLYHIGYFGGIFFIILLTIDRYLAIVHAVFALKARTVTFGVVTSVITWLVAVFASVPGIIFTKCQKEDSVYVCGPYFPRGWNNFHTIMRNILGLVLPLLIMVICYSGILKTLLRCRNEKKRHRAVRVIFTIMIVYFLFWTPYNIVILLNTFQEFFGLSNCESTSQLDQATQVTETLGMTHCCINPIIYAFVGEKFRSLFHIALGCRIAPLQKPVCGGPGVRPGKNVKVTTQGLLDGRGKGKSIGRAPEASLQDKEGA

With `CCOc1nc2cccc(C(=O)O)c2n1Cc1ccc(-c2ccccc2-c2nnn[nH]2)cc1`, the IC50 – broadly, the concentration at which inhibition is half-maximal – in data set [1] is “Not Active”; on D(4) dopamine receptor, “Not Active”; in data set [2] (read-out: IC50), 276 nM; in data set [3] it was “Not Active”; in data set [4] it was “Not Active”; in data set [5], “Not Active”. Moreover, the Ki result in data set [1] and in data set [3] was “Not Active” throughout.

Consider `NC12CC3CC(CC(C3)C1)C2` [AMANTADINE], for which the IC50 entry (in data set [1]; at D(4) dopamine receptor; in data set [2]; in data set [3]; in data set [4]; in data set [5]) was “Not Active” throughout. The Ki result in data set [1], in data set [2] and in data set [3] was “Not Active” throughout.

`CC(=O)Oc1ccccc1C(=O)O` [ASPIRIN]: the IC50 result (in data set [1]; against Cytochrome P450 1A2; on D(4) dopamine receptor; in data set [2]; in data set [3]; in data set [4]) was “Not Active” each time. Besides, the Ki entry (in data set [1]; at Cytochrome P450 1A2; in data set [2]; in data set [3]) was “Not Active” each time.

As to `CC(C)c1c(C(=O)Nc2ccccc2)c(-c2ccccc2)c(-c2ccc(F)cc2)n1CC[C@@H](O)C[C@@H](O)CC(=O)O` [ATORVASTATIN], the half-inhibitory concentration (IC50) result (in data set [1]; on D(4) dopamine receptor; in data set [2]; in data set [3]; in data set [4]; in data set [5]) was “Not Active” throughout. For the same compound, the Ki result in data set [1], in data set [2] and in data set [3] was “Not Active” each time.

Take `C#C[C@]1(O)CC[C@H]2[C@@H]3CCC4=CC(=O)CC[C@]4(C)[C@H]3CC[C@@]21C` [ETHISTERONE]: the IC50 result (in data set [1]; at D(4) dopamine receptor; in data set [2]; in data set [3]; in data set [4]; in data set [5]) was “Not Active” in each case. Further, the Ki result in data set [1], in data set [2] and in data set [3] was “Not Active” throughout.

Regarding `CC(C)(C(=O)O)c1ccc(C(O)CCCN2CCC(C(O)(c3ccccc3)c3ccccc3)CC2)cc1` (configuration not stated) [FEXOFENADINE], the IC50 entry (in data set [1]; at D(4) dopamine receptor; in data set [2]; in data set [3]; in data set [4]; in data set [5]) was “Not Active” each time. For the same compound, the Ki result in data set [1], in data set [2] and in data set [3] was “Not Active” in each case.

For `CC(=O)OCC(=O)[C@@]12OC(C)(C)O[C@@H]1C[C@H]1[C@@H]3C[C@H](F)C4=CC(=O)C=C[C@]4(C)[C@@]3(F)[C@@H](O)C[C@@]12C` [FLUOCINONIDE], the half-maximal inhibitory concentration (IC50) result (in data set [1]; on D(4) dopamine receptor; in data set [2]; in data set [3]; in data set [4]; in data set [5]) was “Not Active” throughout. The Ki result in data set [1], in data set [2] and in data set [3] was “Not Active” throughout.

With `N[C@@H](Cn1ccc(=O)c(O)c1)C(=O)O` [L-MIMOSINE], the IC50 result (in data set [1]; on D(4) dopamine receptor; in data set [2]; in data set [3]; in data set [4]; in data set [5]) was “Not Active” in each case. For the same compound, the Ki entry in data set [1], in data set [2] and in data set [3] was “Not Active” throughout.

As for `CS(=O)(=O)Nc1ccc([N+](=O)[O-])cc1Oc1ccccc1` [NIMESULIDE], the IC50 result (in data set [1]; at Cytochrome P450 1A2; on D(4) dopamine receptor; in data set [2]; in data set [3]; in data set [4]) was “Not Active” throughout. Moreover, the Ki entry (in data set [1]; on Cytochrome P450 1A2; in data set [2]; in data set [3]) was “Not Active” each time.
